{"source": "patent US8883415B2", "about": "“Aza-benzazolium containing cyanine dyes” (Life Technologies Corporation, priority 1999, dated 2014)", "key": {"double-stranded DNA": {"system": "double-stranded DNA", "test": "Detecting double-stranded DNA in solution (fluorescence microplate reader)", "format": "binding", "method": "Samples containing 0.1 ng/mL to 1 microgram/mL double-stranded DNA are prepared in 10 mM Tris-HCl, 1 mM EDTA, pH 7.5. The selected dye of the invention is dissolved in DMSO at a concentration of 1-10 mM and then diluted into the same buffer at a concentration sufficient to achieve final optical densities of 0.1 and 0.01 at 500 nm, 530 nm, 540 nm or 560 nm. Equal volumes (100 microliters each) of DNA sample solution and dye solution at each concentration are combined and mixed gently at room temperature in a microplate well.\nSamples are allowed to equilibrate for 5-60 minutes, protected from light, and the fluorescence of the sample is measured using a fluorescence microplate reader. DNA concentration is determined by comparison of the sample fluorescence with a standard curve obtained with that dye for each dye concentration. The sensitivity limit of several dyes in this assay is shown (Table 5)."}, "[1]": {"system": "double-stranded bacteriophage λ cl857 DNA that is digested with HindIII restriction endonuclease", "test": "Detecting nucleic acids in gels", "format": "binding", "conditions": "1 micromolar dye", "method": "DNA samples are loaded onto agarose or polyacrylamide gels and electrophoresed using standard conditions. Selected dyes of the invention are dissolved in DMSO at a concentration of 1-10 micromolar and diluted into 0.5×TBE buffer to a final concentration of 1 micromolar dye. Gels are incubated for 20-90 minutes in this staining solution, with gentle agitation, at room temperature, protected from light. Nucleic acids are visualized by transillumination at 300 nm, followed by direct visual detection or photography using Polaroid black-and-white print film. Nucleic acids are alternatively visualized by scanning using a FMBIO II laser scanner with a 532 nm frequency-doubled YAG laser source or a charge-coupled device camera system coupled with an ultraviolet (300 nm) light source, or a visible light transilluminator."}, "[2]": {"system": "double-stranded bacteriophage λ cl857 DNA that is digested with HindIII restriction endonuclease", "test": "Detecting nucleic acids in gels", "format": "binding", "conditions": "POLAROID 667 B&W film; FOTODYNE 254 nm epi.; 1 micromolar dye"}, "[3]": {"system": "Escherichia coli ribosomal RNA", "test": "Detecting RNA in solution", "format": "binding", "conditions": "Excitation 540 nm/Emission 570 nm", "method": "Selected dyes of the invention are dissolved in DMSO at 1-10 micromolar concentration, then diluted into 10 mM Tris-HCl, 1 mM EDTA, pH 7.5 to a final optical density of 0.1 or 0.01 at 530 nm or 540 nm. These dye solutions are combined with an equal volume of Escherichia coli ribosomal RNA at concentrations ranging from 0.25 ng/mL to 1 microgram/mL in microplate wells. The resulting mixtures are mixed gently and incubated for 5-60 minutes at room temperature, protected from light, and the sample fluorescence is measured."}, "[4]": {"system": "18-base oligodeoxynucleotide sequencing primer", "test": "Detecting oligonucleotides in solution", "format": "binding", "conditions": "Excitation 540 nm/Emission 570 nm", "method": "Selected dyes of the invention are dissolved in DMSO at 1-10 micromolar concentration, then diluted into 10 mM Tris-HCl, 1 mM EDTA, pH 7.5 to a final optical density of 0.1 or 0.01 at 530 nm or 540 nm. The resulting dye solutions are combined with an equal volume of an 18-base oligodeoxynucleotide sequencing primer solution at concentrations of 0.1 ng/mL to 1 microgram/mL in the same buffer. The resulting mixture is mixed gently and incubated for 5-60 minutes at room temperature, protected from light, and the sample fluorescence is measured in a fluorescence microplate reader."}, "proteins": {"system": "proteins", "test": "Detection of proteins in SDS-polyacrylamide gels", "format": "binding", "conditions": "1-3 μM dye in 7.5% acetic acid", "method": "The pure protein or mixture of proteins of interest is prepared in Loading Buffer (50 mM Tris-HCl, pH 6.8, 2% SDS, 10% glycerol, and 0.015% bromophenol blue). Dithiothreitol is added to each sample, to a final concentration of 0.1 M. The samples are heated for 4-5 minutes at 90-95 °C and loaded onto a 15% Tris-glycine polyacrylamide mini- or full-sized gel containing 0.05%-0.1% SDS, with a 4% stacking gel. The gel is electrophoresed under standard conditions, in a standard Tris-glycine buffer containing 0.05%-0.1% SDS. The resulting gel is transferred to a small staining dish containing a 1-3 μM solution of Compound 25 in 7.5% acetic acid (in water). The staining solution is then covered with foil to protect it from room light and gently agitated for 45 minutes-1 hour. […] The gel is then removed from the staining dish, rinsed briefly in 7.5% acetic acid and transferred directly to a UV-transilluminator. The gel, with the stained protein bands is photographed using 300 nm transillumination and black and white POLAROID 667 print film with a Wratten 9 gelatin filter. […] Proteins appear as white bands on a grey to black background in the POLAROID photograph."}, "[5]": {"system": "Jurkat human T-cell leukemia cells", "test": "Detection of apoptosis by flow cytometry", "format": "cell-based", "conditions": "30 minutes on ice, 488 nm excitation", "method": "A 1 mM solution of Compound 27 in DMSO is prepared. Jurkat human T-cell leukemia cells are treated with 10 μM camptothecin to induce apoptosis. A sample of the cells (1×10^8 cells/mL) is incubated with enough of the Compound 27 stock solution to give a final dye concentration of 0.1 μM, and sufficient propidium iodide to give a final concentration of 1.5 μM. After incubating for 30 minutes on ice, the cell samples are analyzed on a FacsVantage flow cytometer using 488-argon laser excitation, with emission at 530/30 and 675/20. Apoptotic cells are compared to control cells that were incubated with the same final concentration of DMSO used in the staining solution."}, "[6]": {"conditions": "Excitation 540 nm/Emission 570 nm"}, "[7]": {"conditions": "Excitation 530 nm/Emission 560 nm"}}}
{"smiles": "CC[N+](C)(CC)Cc1ccc(C2=C/C(=C\\c3nc4c(ccc[n+]4C)o3)c3cc(OC)ccc3N2C)cc1", "note": "[Compound 25]", "values": [{"measurement": "Sensitivity Limit, High dye concentration (0.1 OD)", "setting": "double-stranded DNA; [6]", "result": "<10", "unit": "ng/mL"}, {"measurement": "Sensitivity Limit, Low dye concentration (0.01 OD)", "setting": "double-stranded DNA; [6]", "result": 0.5, "unit": "ng/mL"}, {"measurement": "Sensitivity for detecting double-stranded DNA in agarose gels", "setting": "[1]; BOEHRINGER MANNHEIM LUMIIMAGER CCD, 300 nm trans., 520 nm em.", "result": 1700, "unit": "pg"}, {"measurement": "Sensitivity for detecting double-stranded DNA in agarose gels", "setting": "[1]; BOEHRINGER MANNHEIM LUMIIMAGER CCD, 300 nm trans., 545 nm em", "result": 100, "unit": "pg"}, {"measurement": "Sensitivity for detecting double-stranded DNA in agarose gels", "setting": "[1]; HITACHI FMBIO II laser scanner, 532 nm freq.-doubled YAG laser", "result": 25, "unit": "pg"}, {"measurement": "Sensitivity for detecting double-stranded DNA in agarose gels", "setting": "[1]; POLAROID 667 B&W film, DARK READER visible light box", "result": 240, "unit": "pg"}, {"measurement": "Sensitivity for detecting double-stranded DNA in agarose gels", "setting": "[1]; POLAROID 667 B&W film, FOTODYNE 300 nm trans.", "result": 120, "unit": "pg"}, {"measurement": "Sensitivity for detecting double-stranded DNA in agarose gels", "setting": "[2]", "result": 120, "unit": "pg"}, {"measurement": "Sensitivity Limit, High dye concentration (0.1 OD)", "setting": "[3]", "result": 200, "unit": "ng/mL"}, {"measurement": "Sensitivity Limit, Low dye concentration (0.01 OD)", "setting": "[3]", "result": 1.2, "unit": "ng/mL"}, {"measurement": "Sensitivity Limit, High dye concentration (0.1 OD)", "setting": "[4]", "result": "<10", "unit": "ng/mL"}, {"measurement": "Sensitivity Limit, Low dye concentration (0.01 OD)", "setting": "[4]", "result": ">10", "unit": "ng/mL"}, {"measurement": "Visual appearance of stained protein bands", "setting": "proteins; 300 nm transillumination", "result": "brightly fluorescent orange bands"}, {"measurement": "Visibility of protein bands in stained gel", "setting": "proteins; after 10 minutes", "result": "protein bands are readily apparent"}]}
{"smiles": "C[n+]1cccc2oc(/C=C3\\C=CN(CCC[N+](C)(C)C)c4ccccc43)nc21", "note": "[Compound 27]", "values": [{"measurement": "Sensitivity Limit, High dye concentration (0.1 OD)", "setting": "double-stranded DNA; [7]", "result": 20, "unit": "ng/mL"}, {"measurement": "Sensitivity Limit, Low dye concentration (0.01 OD)", "setting": "double-stranded DNA; [7]", "result": 0.5, "unit": "ng/mL"}, {"measurement": "Differentiation of apoptotic and normal cells (plot of FL1 versus FL3)", "setting": "[5]; 0.1 μM dye, 10 μM camptothecin-induced apoptosis", "result": "capable of differentiating between apoptotic and normal cells"}]}
{"smiles": "CC[N+](C)(CC)CCC[n+]1c(-c2ccccc2)c2cc(N)ccc2c2ccc(N)cc21.[I-].[I-]", "note": "[propidium iodide, reference compound]", "values": [{"measurement": "Cells stained", "setting": "[5]; 1.5 μM", "result": "Late stage apoptotic and necrotic cells are stained"}]}
